{
  "source": "patent US6489487B1",
  "about": "“Triazolone derivatives, use thereof, and intermediates therefor” (Sumitomo Chemical Company, Limited, priority 1998, dated 2002)",
  "data": [
    {"units": {"melting point": "°C"}, "values": [
      {"compound": "Cc1ccc(-c2ccccc2)cc1Cn1c(Cl)nn(C)c1=O", "note": "[Compound 7, 5-chloro-2-methyl-4-(2-methyl-5-phenylbenzyl)-2,4-dihydro-3H-1,2,4-triazol-3-one]", "melting point": 115.7},
      {"compound": "CSc1nn(C)c(=O)n1Cc1cc(-c2ccccc2)ccc1C", "note": "[Compound 8, 5-methylthio-2-methyl-4-(2-methyl-5-phenylbenzyl)-2,4-dihydro-3H-1,2,4-triazol-3-one]", "melting point": 95.6},
      {"compound": "Cc1ccc(-c2ccccc2)cc1Cn1c(C)nn(C)c1=O", "note": "[Compound 10, 2,5-dimethyl-4-(2-methyl-5-phenylbenzyl)-2,4-dihydro-3H-1,2,4-triazol-3-one]", "melting point": 138.9},
      {"compound": "Cc1ccc(-c2ccccc2)cc1Cn1c(C2CC2)nn(C)c1=O", "note": "[Compound 538, 5-cyclopropyl-2-methyl-4-(2-methyl-5-phenylbenzyl)-2,4-dihydro-3H-1,2,4-triazol-3-one]", "melting point": 102.4}
    ]}
  ]
}
